IC50 and EC50 data for ten compounds are collected here from US20240287048A1, “SUBSTITUTED ACYL SULFONAMIDES FOR TREATING CANCER” (The Broad Institute, Inc., priority 2020, published 2024).

The target of one experiment is T1, KAT6A (Homo sapiens, UniProt Q92794).
T1 construct: Recombinant human His-tagged Kat6a protein (amino acids 194-810); His; made in house; host or cells: Baculovirus-infected Sf9 insect cells
Briefly: Kat6a activity assay (TR-FRET, acetylation of biotinylated histone H4 peptide). The class given is biochemical. The note with it: recombinant human His-tagged Kat6a (amino acids 194-810), 60 mins at 22° C., read-out: KAT6A-DPF/HAT domain IC50 [mol/l] (arithmetic mean). The essentials: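 His-tagged human Kat6a (aa 194-810, Sf9-expressed) with compound (0.01-20 μM) for 60 min at 22° C., pH 8 Tris buffer, 220 nM biotinylated H4 peptide (aa 1-24) and 600 nM acetyl-CoA. Acetyl-K8 detected by Eu-antibody/SA-XL665 TR-FRET (665/620 nm ratio); IC50 from 4-parameter fit.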

The target in another experiment is T2, KAT6B (Homo sapiens, UniProt Q8WYB5).
T2 construct: fused on or other part: N-terminal GST tag
Briefly: Kat6b activity assay (TR-FRET, acetylation of biotinylated histone H4 peptide). The class given is biochemical. The conditions noted are these: recombinant human GST-tagged Kat6b (431-end), 30 mins at 22° C., read-out: KAT6B activity assay IC50 [mol/l] (arithmetic mean). The text has this:
Kat6b inhibitory activities of the compounds described in the present invention were quantified using a Fluorescence Resonance Energy Transfer (TR-FRET) assay which measures acetylation of a synthetic, biotinylated Histone-H4-derived peptide by the enzyme.
Recombinant human GST-tagged Kat6b protein (431-end, N-terminal GST-tag), purified from Baculovirus-infected insect cells (Sf9), was purchased from SignalChem (#K315-381BG). Histone H4 peptide (amino acids 1-24, […]-VLRD-K(Btn)-amide), which was used as substrate, was synthesized by Biosyntan GmbH, Berlin, Germany. Acetyl Coenzyme A was purchased from Sigma-Aldrich (#A-2056).
Kat6b was incubated for 30 mins at 22° C. in the presence of different concentrations of test substances (0 μM, and within the range 0.01-20 μM) in assay buffer [25 mM Tris/HCl pH 8, 1 mM EGTA, 2.5 mM Glutathion, 0.02% Chicken Albumin, 0.05% Pluronic F127, 25 mM NaCl, 500 nM H4 peptide and 600 nM Acetyl Coenzyme A].
The reaction was stopped by addition of Detection Solution (25 mM HEPES pH 7.5, 0.1% BSA, 22 nM SAXL665 (Cisbio #610SAXLE), 100 μM Anacardic Acid (Enzo #ALX-270-381), 1 nM Anti-Histone H4 (ACETYL K8) Antibody (ABCAM #AB15823), 0.5 nM Anti-Rabbit IgG Eu (Perkin Elmer #AD0083).
The fluorescence emission at 620 nm and 665 nm after excitation at 330-350 nm was measured in a TR-FRET measuring instrument, for instance a Rubystar or a Pherastar (both from BMG Lab Technologies, Offenburg, Germany) or a Viewlux (Perkin-Elmer). The ratio of the emission at 665 nm and at […] was used as indicator of the amount of acetylated peptide.
The resulting data (ratio) were normalized, taking 0% inhibition as the mean value of control measurements where all reagents were included. In this case 50 nl DMSO were used instead of compounds. […] IC50 values were determined by regression analysis based on a 4 parameter equation (minimum, maximum, ICM, Hill; Y=Max+(Min−Max)/(1+(X/ICso) Hill) using the Screener Software (Genedata).
Background: TR-FRET usually uses a lanthanide donor and a delayed reading to cut background.

For experiment [1], the system named is ESR1 transcription in MVLN cells. As to the kind of experiment: Repression of ESR1 transcription, MVLN luciferase reporter assay. The class given is cell-based. The note with it: Homo sapiens, luciferase signal after 24 h, read-out: MVLN reporter assay, IC50[M] (arithmetic mean). The essentials: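 MVLN cells stably carry an ER-responsive vitellogenin A2 element driving luciferase. After 24 h of compound treatment, luciferase was read in lysate as the measure of ERα transcription. Alamar Blue fluorescence (530/590 nm, 2 h) was read first to control for cell loss; samples were run in duplicate.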

For the next experiment, the system named is ZR-75-1 cells. Briefly: Proliferation assay in ZR-75-1 cells. The class given is cell-based. The note with it: Homo sapiens, 144 h, Alamar Blue, read-out: ZR75-1 proliferation assay, EC50[M] (arithmetic mean). The text has this: (§1) For compound characterization cell survival assays were routinely run in two cell lines. ZR-75-1 is a breast carcinoma cell line containing a focal KAT6A amplification and high KAT6A protein expression. Proliferation of this cell line is inhibited upon treatment with KAT6A inhibitors. As a negative control cell line MDA-MB-436 were used. These cells carry a […] deletion of the KAT6A gene, have a low KAT6A protein expression and are not growth inhibited upon treatment with KAT6A inhibitors.
(§2) For measurements cell lines were plated at the below indicated concentration per […] in 96-well plates in a humidified incubator at 37° C. and 5% CO2.
(§3) ZR-75-1 (ATCC, CRL-1500; breast carcinoma); 3000 cells per well; culture medium: RPMI 1640 (Biochrom #FG 1215) medium containing 2.5% FBS (Biochrom #S0615). LCLC-97TM1 (DSMZ, ACC 388; large cell lung carcinoma); 6000 cells per well; culture medium: RPMI 1640 (Biochrom #FG 1215) medium containing 2.5% FBS (Biochrom #S0615). MDA-MB-436 (CLS, 300278; breast adenocarcinoma); 3000 cells per well; culture medium: DMEM/Ham's F12 (Biochrom #FG 4815) medium containing 2.5% FBS (Biochrom #S0615).
(§4) Each sample was prepared as triplicate and rim wells were excluded. Plates were incubated at 37° C. and 5% CO2 for 144 h. Cell viability was measured by adding 10 μL of Alamar Blue Reagent (Invitrogen #DAL 1100) and plates were incubated for 2 h at 37° C. and 5% CO2. Fluorescence was measured at 590 nm wavelength with a Tecan Spark or Victor X3 MTP-Reader (PerkinElmer).
A general note: Alamar Blue is a resazurin reagent that responds to reducing activity.

The next experiment relates to MDA-MB-436 cells. Briefly: Proliferation assay in MDA-MB-436 cells (negative control cell line). The class given is cell-based. The note with it: Homo sapiens, 144 h, Alamar Blue, read-out: MDA-MB-436 proliferation assay, EC50[M] (arithmetic mean).
Source text: as §1, §2, §3, §4

The structures appear in SMILES notation.

T1 sequence (Q92794 194-810): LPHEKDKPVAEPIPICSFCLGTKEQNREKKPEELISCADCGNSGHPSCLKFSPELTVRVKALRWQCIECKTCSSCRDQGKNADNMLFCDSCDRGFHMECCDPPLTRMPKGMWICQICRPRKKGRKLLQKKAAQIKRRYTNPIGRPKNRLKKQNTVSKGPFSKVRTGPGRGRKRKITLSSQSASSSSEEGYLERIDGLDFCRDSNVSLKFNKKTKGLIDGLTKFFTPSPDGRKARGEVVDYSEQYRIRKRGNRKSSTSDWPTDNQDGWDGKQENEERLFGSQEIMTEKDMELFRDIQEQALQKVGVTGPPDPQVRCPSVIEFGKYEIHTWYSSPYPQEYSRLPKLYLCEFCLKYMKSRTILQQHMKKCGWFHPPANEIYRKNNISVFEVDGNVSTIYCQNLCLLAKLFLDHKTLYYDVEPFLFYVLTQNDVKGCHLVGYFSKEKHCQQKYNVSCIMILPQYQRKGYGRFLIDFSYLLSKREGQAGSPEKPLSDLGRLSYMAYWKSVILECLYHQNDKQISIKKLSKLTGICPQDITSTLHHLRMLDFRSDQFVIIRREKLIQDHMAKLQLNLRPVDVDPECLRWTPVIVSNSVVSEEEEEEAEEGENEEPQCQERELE
T2 sequence (Q8WYB5 723-2073 limits assumed): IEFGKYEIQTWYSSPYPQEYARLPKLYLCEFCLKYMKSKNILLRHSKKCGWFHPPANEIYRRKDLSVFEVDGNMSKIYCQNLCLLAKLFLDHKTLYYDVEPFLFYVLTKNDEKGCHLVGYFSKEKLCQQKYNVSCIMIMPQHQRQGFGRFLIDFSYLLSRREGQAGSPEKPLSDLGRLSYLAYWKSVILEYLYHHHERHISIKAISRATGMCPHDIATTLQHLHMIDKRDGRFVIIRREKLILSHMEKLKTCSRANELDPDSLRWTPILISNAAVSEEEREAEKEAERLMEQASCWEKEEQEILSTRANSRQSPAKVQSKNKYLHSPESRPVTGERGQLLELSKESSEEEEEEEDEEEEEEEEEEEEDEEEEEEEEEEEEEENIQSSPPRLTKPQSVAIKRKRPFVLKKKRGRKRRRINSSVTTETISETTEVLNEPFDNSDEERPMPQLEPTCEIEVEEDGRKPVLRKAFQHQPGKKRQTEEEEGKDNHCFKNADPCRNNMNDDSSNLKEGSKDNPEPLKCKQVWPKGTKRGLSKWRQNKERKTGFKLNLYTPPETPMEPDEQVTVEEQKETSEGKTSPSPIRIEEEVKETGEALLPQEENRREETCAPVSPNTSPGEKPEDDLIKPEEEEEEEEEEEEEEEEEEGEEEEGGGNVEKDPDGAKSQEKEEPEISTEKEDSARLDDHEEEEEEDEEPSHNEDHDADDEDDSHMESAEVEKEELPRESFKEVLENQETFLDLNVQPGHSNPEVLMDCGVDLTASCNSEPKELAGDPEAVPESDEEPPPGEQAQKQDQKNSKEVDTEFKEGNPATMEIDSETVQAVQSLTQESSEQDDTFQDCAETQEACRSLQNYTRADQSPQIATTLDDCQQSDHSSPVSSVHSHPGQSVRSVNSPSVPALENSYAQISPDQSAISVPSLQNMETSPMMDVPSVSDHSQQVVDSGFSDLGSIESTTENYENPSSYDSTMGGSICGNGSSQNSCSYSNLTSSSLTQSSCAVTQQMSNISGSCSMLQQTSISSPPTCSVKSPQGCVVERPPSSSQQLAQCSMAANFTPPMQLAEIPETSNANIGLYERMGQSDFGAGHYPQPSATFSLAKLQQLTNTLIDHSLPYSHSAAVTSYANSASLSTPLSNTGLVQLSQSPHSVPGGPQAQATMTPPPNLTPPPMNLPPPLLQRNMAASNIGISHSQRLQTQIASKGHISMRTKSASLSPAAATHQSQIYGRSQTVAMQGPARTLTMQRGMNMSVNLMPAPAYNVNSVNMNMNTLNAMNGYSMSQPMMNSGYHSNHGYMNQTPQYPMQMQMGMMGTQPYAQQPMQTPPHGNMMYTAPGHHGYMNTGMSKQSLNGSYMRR

For `Cc1ccc2cc(C(=O)NS(=O)(=O)c3ccccc3-c3ccccc3)oc2c1` [Example 2, N-([1,1′-biphenyl]-2-sulfonyl)-6-methyl-1-benzofuran-2-carboxamide], the IC50 on KAT6A worked out at 882 nM; at KAT6B it was 2220 nM; in experiment [1] it was 1.11e-05 M. Further, the EC50 with ZR-75-1 cells and with MDA-MB-436 cells was over 2e-05 M each time.

Take `Cc1cc(C)c2cc(C(=O)NS(=O)(=O)c3ccccc3-c3ccccc3C)oc2c1` [Example 6, 4,6-Dimethyl-N-(2′-methyl[1,1′-biphenyl]-2-sulfonyl)-1-benzofuran-2-carboxamide]: the IC50 on KAT6A was 128 nM; at KAT6B it was 245 nM; in experiment [1], 5.55e-06 M. In addition, the EC50 in the experiment on ZR-75-1 cells and in the experiment on MDA-MB-436 cells was over 2e-05 M throughout.

As to `Cc1ccc(S(=O)(=O)NC(=O)c2cc3c(C)cc(C)cc3o2)c(-c2ccccc2)c1` [Example 7, 4,6-Dimethyl-N-(5-methyl[1,1′-biphenyl]-2-sulfonyl)-1-benzofuran-2-carboxamide], the IC50 at KAT6A came out at 86.5 nM; on KAT6B, 114 nM; in experiment [1] it was 4.54e-06 M. Moreover, the EC50 with ZR-75-1 cells and in the experiment on MDA-MB-436 cells was over 2e-05 M in each case.

As to `Cc1cc(C)c2cc(C(=O)NS(=O)(=O)c3ccccc3-c3ccccc3)oc2c1` [Example 9, N-([1,1′-biphenyl]-2-sulfonyl)-4,6-dimethyl-1-benzofuran-2-carboxamide], the values for the IC50 (at KAT6A; at KAT6B; in experiment [1]) were 90.5 nM, 220 nM and 2.5e-06 M, respectively. The EC50 with ZR-75-1 cells was 1.81e-05 M; in the experiment on MDA-MB-436 cells, over 2e-05 M.

For the compound `COc1cc(C)cc2oc(C(=O)NS(=O)(=O)c3ccccc3-c3ccccc3)cc12` [Example 10, N-([1,1′-biphenyl]-2-sulfonyl)-4-methoxy-6-methyl-1-benzofuran-2-carboxamide], the IC50 at KAT6A turned out to be 933 nM; on KAT6B, 1120 nM; in experiment [1] it was 1e-05 M. The figures for the EC50 in the experiment with ZR-75-1 cells and in the experiment on MDA-MB-436 cells were 1.39e-05 M and over 2e-05 M, respectively.

`Cc1cc(C)c2cc(C(=O)NS(=O)(=O)c3ccccc3-c3cccc(Cl)c3)oc2c1` [Example 11, N-(3′-chloro[1,1′-biphenyl]-2-sulfonyl)-4,6-dimethyl-1-benzofuran-2-carboxamide]: the IC50 at KAT6A was 63.5 nM; on KAT6B, 299 nM; in experiment [1] it was 5.85e-06 M. Besides, the EC50 stood at 1.17e-05 M in the experiment on ZR-75-1 cells and 1.42e-05 M in the experiment on MDA-MB-436 cells.

Take `COc1cc(C)cc2oc(C(=O)NS(=O)(=O)c3ccc(C)cc3-c3ccccc3)cc12` [Example 12, 4-Methoxy-6-methyl-N-(5-methyl[1,1′-biphenyl]-2-sulfonyl)-1-benzofuran-2-carboxamide]: the IC50 at KAT6A came out at 401 nM; on KAT6B, 372 nM; in experiment [1] it was 6.05e-06 M. Besides, the EC50 is 1.03e-05 M in the experiment on ZR-75-1 cells and over 2e-05 M in the experiment on MDA-MB-436 cells.

Turning to `CCOc1ccccc1S(=O)(=O)NC(=O)c1cc2c(OC)cc(C)cc2o1` [Example 13, N-(2-Ethoxybenzene-1-sulfonyl)-4-methoxy-6-methyl-1-benzofuran-2-carboxamide], the IC50 amounted to 1130 nM on KAT6A, 1730 nM on KAT6B and 5.08e-06 M in experiment [1]. Also, the EC50 was 1.02e-05 M with ZR-75-1 cells and over 2e-05 M in the experiment on MDA-MB-436 cells.

Consider `O=C(NS(=O)(=O)c1ccccc1-c1ccccc1)c1cc2ccc(C(F)F)cc2o1` [Example 17, N-([1,1′-Biphenyl]-2-sulfonyl)-6-(difluoromethyl)-1-benzofuran-2-carboxamide], for which the figures for the IC50 at KAT6A and at KAT6B were 1300 nM and 2580 nM, respectively. Moreover, the figures for the EC50 in the experiment on ZR-75-1 cells and in the experiment on MDA-MB-436 cells were 6.12e-06 M and over 2e-05 M, respectively.

Take `O=C(NS(=O)(=O)c1ccccc1OC1CC1)c1cc2c(F)cc(C3CC3)cc2o1` [Example 24, 6-Cyclopropyl-N-[2-(cyclopropyloxy)benzene-1-sulfonyl]-4-fluoro-1-benzofuran-2-carboxamide]: the IC50 on KAT6A was found to be 14.1 nM; on KAT6B, 19 nM; in experiment [1], 2.47e-07 M. Also, the EC50 in the experiment on ZR-75-1 cells was 6.74e-07 M.
